{"source": "paper PMC3685283", "about": "(Molecular cancer research : MCR, 2012)", "key": {"Smoothened (SMO) [1]": {"molecular_target": "Smoothened (SMO) (Mus musculus, UniProt P56726)", "sequence (P56726 33-793)": "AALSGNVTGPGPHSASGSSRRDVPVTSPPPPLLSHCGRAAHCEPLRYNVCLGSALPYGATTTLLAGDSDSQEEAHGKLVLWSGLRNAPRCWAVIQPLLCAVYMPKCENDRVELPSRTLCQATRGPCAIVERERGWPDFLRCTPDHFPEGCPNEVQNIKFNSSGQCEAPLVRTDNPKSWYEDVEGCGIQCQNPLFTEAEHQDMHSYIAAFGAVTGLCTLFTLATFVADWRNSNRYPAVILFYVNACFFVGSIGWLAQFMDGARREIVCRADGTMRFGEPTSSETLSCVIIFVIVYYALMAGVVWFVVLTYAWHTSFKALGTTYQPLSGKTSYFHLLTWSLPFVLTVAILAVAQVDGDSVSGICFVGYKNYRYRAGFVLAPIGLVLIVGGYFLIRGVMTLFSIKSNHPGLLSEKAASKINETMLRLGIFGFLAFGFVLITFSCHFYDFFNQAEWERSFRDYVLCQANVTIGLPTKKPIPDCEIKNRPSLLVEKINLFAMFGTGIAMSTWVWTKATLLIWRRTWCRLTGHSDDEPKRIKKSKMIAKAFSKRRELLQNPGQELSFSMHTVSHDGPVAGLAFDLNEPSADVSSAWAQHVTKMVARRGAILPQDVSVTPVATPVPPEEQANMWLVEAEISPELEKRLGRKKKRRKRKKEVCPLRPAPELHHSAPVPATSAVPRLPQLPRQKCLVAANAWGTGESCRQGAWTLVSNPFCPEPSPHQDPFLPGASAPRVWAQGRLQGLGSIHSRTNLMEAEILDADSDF", "test": "BODIPY-cyclopamine competition binding in SMO-transfected HeLa cells", "assay_type": "cell-based"}, "Smoothened (SMO) [2]": {"molecular_target": "Smoothened (SMO) (Homo sapiens, UniProt Q99835)", "sequence (Q99835 28-787)": "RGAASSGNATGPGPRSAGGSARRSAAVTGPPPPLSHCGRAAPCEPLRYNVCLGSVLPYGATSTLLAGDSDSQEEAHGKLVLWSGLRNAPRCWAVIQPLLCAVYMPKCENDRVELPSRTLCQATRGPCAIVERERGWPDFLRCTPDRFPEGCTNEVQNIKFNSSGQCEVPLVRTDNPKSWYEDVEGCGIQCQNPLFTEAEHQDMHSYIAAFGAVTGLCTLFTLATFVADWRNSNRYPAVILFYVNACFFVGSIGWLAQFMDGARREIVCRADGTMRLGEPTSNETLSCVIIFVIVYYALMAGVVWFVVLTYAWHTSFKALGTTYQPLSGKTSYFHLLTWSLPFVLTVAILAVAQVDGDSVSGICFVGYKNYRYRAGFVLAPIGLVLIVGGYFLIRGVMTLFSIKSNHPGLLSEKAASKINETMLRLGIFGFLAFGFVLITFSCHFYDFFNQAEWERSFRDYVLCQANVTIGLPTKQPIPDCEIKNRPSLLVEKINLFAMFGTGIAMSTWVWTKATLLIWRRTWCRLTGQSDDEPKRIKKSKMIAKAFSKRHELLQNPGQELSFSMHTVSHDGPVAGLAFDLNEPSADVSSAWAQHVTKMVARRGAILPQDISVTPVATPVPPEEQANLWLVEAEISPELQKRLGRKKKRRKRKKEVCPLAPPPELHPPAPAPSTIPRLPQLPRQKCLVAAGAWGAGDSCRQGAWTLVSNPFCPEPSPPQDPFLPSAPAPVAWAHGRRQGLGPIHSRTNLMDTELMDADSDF", "test": "BODIPY-cyclopamine competition binding in SMO-transfected HeLa cells", "assay_type": "cell-based"}}, "data": [{"smiles": "CC1=C2C[C@H]3[C@@H](CC=C4CC(=O)CC[C@@]43C)[C@@H]2CC[C@]12O[C@@H]1C[C@H](C)CN(CCNC(=O)CCCCCNC(=O)CCc3ccccc3)[C@H]1[C@H]2C", "note": "[KAAD-cyclopamine]", "values": [{"measurement": "Kd", "setting": "Smoothened (SMO) [1]", "value": 2, "unit": "nM"}, {"measurement": "Kd", "setting": "Smoothened (SMO) [2]", "value": 0.8, "unit": "nM"}]}]}
